One block for each molecule: values may come before it.
Test system: 843782-103-R-J1-PDC complex spheroid viability
Assay: Anticancer human tumor 843782-103-R-J1-PDC patient-derived lung adenocarcinoma cell line growth inhibition [RAS]
Conditions: for IC50: curve of first compound; for viability, T/C: stronger effect = lower value
Outline: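 Tumour cells grown as complex spheroids with HUVEC endothelial cells and mesenchymal stem cells, treated with RAS pathway inhibitor combinations. Each agent spans half-log steps from near clinical Cmax, or 10 microM where Cmax is unknown.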

[1] = second compound 0.000949 µM, first compound 0.0316 µM
[2] = second compound 0.000949 µM, first compound 0.1 µM
[3] = second compound 0.003 µM, first compound 0.0316 µM
[4] = second compound 0.003 µM, first compound 0.1 µM
[5] = second compound 0.00949 µM, first compound 0.0316 µM
[6] = second compound 0.00949 µM, first compound 0.1 µM
[7] = second compound 0.03 µM, first compound 0.0316 µM
[8] = second compound 0.03 µM, first compound 0.1 µM
[9] = second compound 0.0949 µM, first compound 0.0316 µM
[10] = second compound 0.0949 µM, first compound 0.1 µM
[11] = second compound 0.3 µM, first compound 0.0316 µM
[12] = second compound 0.3 µM, first compound 0.1 µM
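Further: viability read after seven days of compound exposure.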

IC50 (second compound 0.000949 µM): 287 nM
IC50 (second compound 0.003 µM): 325 nM
IC50 (second compound 0.00949 µM): 402 nM
IC50 (second compound 0.03 µM): 309 nM
IC50 (second compound 0.0949 µM): 403 nM
IC50 (second compound 0.3 µM): 174 nM
Structure (SMILES): CC(C)NCC(C(=O)N1CCN(c2ncnc3c2C(C)CC3O)CC1)c1ccc(Cl)cc1 (centres undefined) + CCn1c(-c2cccnc2C(C)OC)c2c3cc(ccc31)N1CCOC(CC(NC(=O)C(C(C)C)N(C)C(=O)C3(F)CCN(C(=O)C#CC(C)(C)N(C)C)CC3)C(=O)N3CCCC(N3)C(=O)OCC(C)(C)C2)C1
viability, T/C [1]: 74.5%
viability, T/C [2]: 68.8%
viability, T/C (second compound 0.000949 µM, first compound 0.316 µM): 48.5%
viability, T/C (second compound 0.000949 µM, first compound 1 µM): 19.6%
viability, T/C (second compound 0.000949 µM, first compound 3.16 µM): 10.8%
viability, T/C (second compound 0.000949 µM, first compound 10 µM): 4.86%
viability, T/C [3]: 74.1%
viability, T/C [4]: 71.3%
viability, T/C (second compound 0.003 µM, first compound 0.316 µM): 47.5%
viability, T/C (second compound 0.003 µM, first compound 1 µM): 30%
viability, T/C (second compound 0.003 µM, first compound 3.16 µM): 12.4%
viability, T/C (second compound 0.003 µM, first compound 10 µM): 7.3%
viability, T/C [5]: 68.2%
viability, T/C [6]: 65.3%
viability, T/C (second compound 0.00949 µM, first compound 0.316 µM): 55.9%
viability, T/C (second compound 0.00949 µM, first compound 1 µM): 30%
viability, T/C (second compound 0.00949 µM, first compound 3.16 µM): 13.9%
viability, T/C (second compound 0.00949 µM, first compound 10 µM): 4.79%
viability, T/C [7]: 72.9%
viability, T/C [8]: 66%
viability, T/C (second compound 0.03 µM, first compound 0.316 µM): 50.5%
viability, T/C (second compound 0.03 µM, first compound 1 µM): 24.8%
viability, T/C (second compound 0.03 µM, first compound 3.16 µM): 13.8%
viability, T/C (second compound 0.03 µM, first compound 10 µM): 6.84%
viability, T/C [9]: 70.8%
viability, T/C [10]: 66.3%
viability, T/C (second compound 0.0949 µM, first compound 0.316 µM): 56.9%
viability, T/C (second compound 0.0949 µM, first compound 1 µM): 27.1%
viability, T/C (second compound 0.0949 µM, first compound 3.16 µM): 11.5%
viability, T/C (second compound 0.0949 µM, first compound 10 µM): 5.05%
viability, T/C [11]: 63.4%
viability, T/C [12]: 60%
viability, T/C (second compound 0.3 µM, first compound 0.316 µM): 39.8%
viability, T/C (second compound 0.3 µM, first compound 1 µM): 23.2%
viability, T/C (second compound 0.3 µM, first compound 3.16 µM): 11.3%
viability, T/C (second compound 0.3 µM, first compound 10 µM): 5.97%

IC50 (second compound 0.000949 µM): 6.59 nM
IC50 (second compound 0.003 µM): 5.28 nM
IC50 (second compound 0.00949 µM): 5.87 nM
IC50 (second compound 0.03 µM): 5.1 nM
IC50 (second compound 0.0949 µM): 7.35 nM
IC50 (second compound 0.3 µM): 3.57 nM
Structure (SMILES): CC(C)n1nc(-c2ccc3oc(N)nc3c2)c2c(N)ncnc21 + CCn1c(-c2cccnc2C(C)OC)c2c3cc(ccc31)N1CCOC(CC(NC(=O)C(C(C)C)N(C)C(=O)C3(F)CCN(C(=O)C#CC(C)(C)N(C)C)CC3)C(=O)N3CCCC(N3)C(=O)OCC(C)(C)C2)C1
viability, T/C (second compound 0.000949 µM, first compound 0.000316 µM): 84.1%
viability, T/C (second compound 0.000949 µM, first compound 0.001 µM): 66.4%
viability, T/C (second compound 0.000949 µM, first compound 0.00316 µM): 55.4%
viability, T/C (second compound 0.000949 µM, first compound 0.01 µM): 52.8%
viability, T/C [1]: 28.5%
viability, T/C [2]: 14.9%
viability, T/C (second compound 0.003 µM, first compound 0.000316 µM): 78.1%
viability, T/C (second compound 0.003 µM, first compound 0.001 µM): 72.7%
viability, T/C (second compound 0.003 µM, first compound 0.00316 µM): 52.9%
viability, T/C (second compound 0.003 µM, first compound 0.01 µM): 44.4%
viability, T/C [3]: 27.1%
viability, T/C [4]: 18.3%
viability, T/C (second compound 0.00949 µM, first compound 0.000316 µM): 72.7%
viability, T/C (second compound 0.00949 µM, first compound 0.001 µM): 62.8%
viability, T/C (second compound 0.00949 µM, first compound 0.00316 µM): 57.3%
viability, T/C (second compound 0.00949 µM, first compound 0.01 µM): 46.1%
viability, T/C [5]: 28%
viability, T/C [6]: 15.5%
viability, T/C (second compound 0.03 µM, first compound 0.000316 µM): 70.4%
viability, T/C (second compound 0.03 µM, first compound 0.001 µM): 69.9%
viability, T/C (second compound 0.03 µM, first compound 0.00316 µM): 53.6%
viability, T/C (second compound 0.03 µM, first compound 0.01 µM): 42.7%
viability, T/C [7]: 25.3%
viability, T/C [8]: 17.1%
viability, T/C (second compound 0.0949 µM, first compound 0.000316 µM): 73%
viability, T/C (second compound 0.0949 µM, first compound 0.001 µM): 64%
viability, T/C (second compound 0.0949 µM, first compound 0.00316 µM): 70.5%
viability, T/C (second compound 0.0949 µM, first compound 0.01 µM): 42.1%
viability, T/C [9]: 25.6%
viability, T/C [10]: 15.8%
viability, T/C (second compound 0.3 µM, first compound 0.000316 µM): 71.3%
viability, T/C (second compound 0.3 µM, first compound 0.001 µM): 66.7%
viability, T/C (second compound 0.3 µM, first compound 0.00316 µM): 47.3%
viability, T/C (second compound 0.3 µM, first compound 0.01 µM): 40.3%
viability, T/C [11]: 23.7%
viability, T/C [12]: 12.6%

Reference: PubChem BioAssay AID2060883 (Molecular Pharmacology Branch, DTP, NCI, 2025)
